Laboratory results: ChEMBL document CHEMBL5346879, “Identification of a short ACE2-derived stapled peptide targeting the SARS-CoV-2 spike protein” (Eur J Med Chem, 2023)
Where a SMILES comes first, the peptide text is derived from it. Bridges are numbered along the chain shown (N, C = ends). [ ]: non-standard residue; d: D form. S5 = C=CCCC[C@](C)(N)C(=O)O

Key:
[1] = molecular target: Spike glycoprotein/Angiotensin-converting enzyme 2 (Severe acute respiratory syndrome coronavirus 2) (UniProt Q9BYF1+P0DTC2); assay: Inhibition of SARS-CoV-2 spike protein RBD- human ACE2 interaction at 30 uM incubated for 1 hr by colorimetric ELISA assay relative to control
[2] = molecular target: Spike glycoprotein/Angiotensin-converting enzyme 2 (Severe acute respiratory syndrome coronavirus 2, UniProt P0DTC2); assay: Inhibition of SARS-CoV-2 spike protein RBD- human ACE2 interaction incubated for 1 hr by colorimetric ELISA assay
[3] = Stability in human plasma assessed as peptide degradation at 200 ug/ml incubated for 48 hrs by LC-MS/MS analysis; type: ADME, cell-free; conditions: at 200 µg/mL

In the case of `CC(C)C[C@@H]1NC(=O)[C@H](CC(=O)O)NC(=O)[C@H](CCC(=O)O)NC(=O)[C@@](C)(NC(=O)[C@H](CCC(=O)O)NC(=O)[C@@H](N)Cc2c[nH]cn2)CCC/C=C\CCC[C@@](C)(C(=O)N[C@@H](Cc2ccc(O)cc2)C(=O)N[C@@H](CCC(N)=O)C(N)=O)NC1=O` (H-HE[S5]EDL[S5]YQ-NH2; staple (Z) 3-7), the inhibition [1] is reported as 55%, the IC50 [2] is reported as 21 µM and the Stability [3] is reported as “Stable”.
For H-HEAEDLFYQ-NH2, the Stability [3] was “Stable”.
